Data taken from article PMC9705435, “Thiocarbazate building blocks enable the construction of azapeptides for rapid development of therapeutic candidates” (Nature Communications, 2022).
“And” between values parts separate entries of the source, which are not always exact repeats. Identical values can stand only once. Numbered stars: 1 amine (or outer) side, 2 acyl side, 3 side chain; on linkers, the order of the positions; unused ones are H or OH. Square brackets hold non-standard residues; d marks the D form. Peptide text beside a SMILES is read from it. * marks the point of attachment. azaPhe = O=C(N(Cc1ccccc1)N[*:1])[*:2]; azaPro = O=C(N1CCCN1[*:1])[*:2]; X1 = N=C(N)NCCCN(N)C(=O)*; azaGly = NNC(=O)O

Tests used:
[1] = target: T1, HMGB1/MD-2 binding (Homo sapiens, UniProt Q9Y6Y9); assay: SPR HMGB1/MD-2 binding inhibition assay; conditions: immobilized disulfide HMGB1, MD-2 0.25 µM
T1 construct: purchased R&D Systems 1787-MD
T1 sequence (Q9Y6Y9 17-160 limits assumed): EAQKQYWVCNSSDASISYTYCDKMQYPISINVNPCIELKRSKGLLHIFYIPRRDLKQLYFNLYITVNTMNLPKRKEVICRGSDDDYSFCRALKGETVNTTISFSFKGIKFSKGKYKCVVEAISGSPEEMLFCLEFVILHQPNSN

[2] = in vitro; conditions: male, C57BL/6J, mouse, blood
[3] = target: T2, Human B2 (h) receptor (B2R) (Homo sapiens, UniProt P30411); assay: Human B2 (h) (agonist radioligand) receptor binding assay, [3H]bradykinin displacement; conditions: Eurofins Cerep report
T2 construct: host or cells: CHO cells
T2 sequence (P30411 1-391): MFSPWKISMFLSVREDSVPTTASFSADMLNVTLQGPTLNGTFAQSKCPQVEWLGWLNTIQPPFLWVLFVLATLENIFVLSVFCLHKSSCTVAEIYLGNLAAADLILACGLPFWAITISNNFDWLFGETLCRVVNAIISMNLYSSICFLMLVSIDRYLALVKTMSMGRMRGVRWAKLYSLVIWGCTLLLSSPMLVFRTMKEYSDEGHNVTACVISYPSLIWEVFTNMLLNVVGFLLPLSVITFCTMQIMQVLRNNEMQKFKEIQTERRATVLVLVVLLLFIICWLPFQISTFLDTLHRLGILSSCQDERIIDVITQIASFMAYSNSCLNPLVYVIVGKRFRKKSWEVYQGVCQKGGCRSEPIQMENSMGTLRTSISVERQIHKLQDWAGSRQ
Text: The data was collected by CRO Eurofins Cerep (France) and the result is attached as an additional data file. B2R radioligand agonist binding displacement assay for determination of IC-50.
Test compounds (FI-U / [azaP2, azaF8-BK (70), FI-2V / azaF8-BK (68), and FI-8G / azaP2-BK (63)) were supplied to Eurofins in a blinded manner and run at five concentrations to determine the IC-50’s. Standard company control test compounds were used for assay validation. Experimental assays achieved inhibition of more than 50% and were considered to represent significant effects of the test compounds.
(B2(h)) was used as the agonist for B2R receptor binding. The results are expressed as a percent of control specific binding (measured specific binding /control specific binding)*100, and as a percent inhibition of control specific binding (100 minus (measured specific binding/ control specific binding)*100) obtained in the presence of the test compounds. The IC50 values (concentration causing a half-maximal inhibition of control specific binding) and Hill coefficients (nH) were determined by non-linear regression analysis of the competition curves generated with mean replicate values using Hill equation curve fitting Y=D+[ A-D / 1+(C/C50) nH] where Y = specific binding, A = left asymptote of the curve, D = right asymptote of the curve, C = compound concentration, C50 = IC50, and nH = slope factor. This analysis was performed using software developed at Cerep (Hill software) and validated by comparison with data generated by the commercial software SigmaPlot® 4.0 for […]
The inhibition constants (Ki) were calculated using the Cheng Prusoff equation. Ki=IC50/(1+L/Kd) where L = concentration of radioligand in the assay, and Kd = affinity of the radioligand for the receptor. A scatchard plot is used to determine the Kd. […]
9.1. Experimental Conditions
9.1.1. In Vitro Pharmacology: Binding Assays
Assay Source Ligand Conc. Kd Non Specific Incubation Detection Bibl.
(agonist recombinant (1 µM) RT counting
9.2. Analysis and expression of results
9.2.1. In Vitro Pharmacology: Binding Assays
The results are expressed as a percent of control specific binding measured specific binding *100 […]
and as a percent inhibition of control specific binding
100-( measured specific binding *100) […]
obtained in the presence of the test compounds.
The IC50 values (concentration causing a half-maximal inhibition of control specific binding) and Hill coefficients (nH) were determined by non-linear regression analysis of the competition curves generated with mean replicate values using Hill equation […]
where Y = specific binding, A = left asymptote of the curve, D = right asymptote of the curve, C = compound concentration, C50 = IC50, and nH = slope factor. This analysis was performed using software developed at Cerep (Hill software) and validated by […]
The inhibition constants (Ki ) were calculated using the Cheng Prusoff equation where L = concentration of radioligand in the assay, and KD = affinity of the radioligand for the receptor. A scatchard plot is used to […]

half-life ([2]; Ex-vivo stability t 1/2)	SMILES	IC50 [1]	half-life [2]	nH (Hill coefficient) [3]
–	NC(=O)[C@H](CCC(=O)O)NC(=O)[C@H](CO)NC(=O)[C@H](CO)NC(=O)N(N)Cc1ccccc1 [Compound 52, azaF^1SSE-NH2]	249 nM	> 120 min	–
2.6 ± 0.11 min	NC(=O)N(CCC(=O)O)NC(=O)[C@H](CO)NC(=O)[C@H](CO)NC(=O)[C@@H](N)Cc1ccccc1 [Compound 53, FSSazaE^4-NH2]	397 nM	–	–
–	NN(Cc1ccccc1)C(=O)N[C@@H](CO)C(=O)N[C@@H](CO)C(=O)N[C@@H](CCC(=O)O)C(=O)O [Compound 54, azaF^1SSE-OH]	127 nM	> 120 min	–
–	NC(=O)CC[C@H](NC(=O)[C@H](CO)NC(=O)[C@H](CO)NC(=O)N(N)Cc1ccccc1)C(=O)O [Compound 55, azaF^1SSQ-OH]	159 nM	24.4 ± 1.6 min	–
–	NC(=O)CC[C@H](NC(=O)[C@H](CO)NC(=O)[C@H](CO)NC(=O)N(N)Cc1ccccc1)C(N)=O [Compound 56, azaF^1SSQ-NH2]	349 nM	> 120 min	–
–	NC(=O)CCN(NC(=O)[C@H](CO)NC(=O)[C@H](CO)NC(=O)N(N)Cc1ccccc1)C(N)=O [Compound 57, azaF^1SSazaQ^4-NH2]	83 nM	> 120 min	–
–	N=C(N)NCCC[C@H](NC(=O)[C@H](Cc1ccccc1)NC(=O)[C@@H]1CCCN1C(=O)[C@H](CO)NC(=O)[C@H](Cc1ccccc1)NC(=O)CNC(=O)[C@@H]1CCCN1C(=O)[C@@H]1CCCN1C(=O)N(N)CCCNC(=N)N)C(=O)O [Compound 62] (X1-PPGFSPFR-OH)	–	2.46 ± 0.05 min	–
–	N=C(N)NCCC[C@H](NC(=O)[C@H](Cc1ccccc1)NC(=O)[C@@H]1CCCN1C(=O)[C@H](CO)NC(=O)[C@H](Cc1ccccc1)NC(=O)CNC(=O)N1CCCN1C(=O)[C@@H]1CCCN1C(=O)[C@@H](N)CCCNC(=N)N)C(=O)O [Compound 64, RPazaP^3GFSPFR]	–	2.63 ± 0.25 min	–
–	N=C(N)NCCC[C@H](NC(=O)[C@H](Cc1ccccc1)NC(=O)[C@@H]1CCCN1C(=O)[C@H](CO)NC(=O)[C@H](Cc1ccccc1)NC(=O)NNC(=O)[C@@H]1CCCN1C(=O)[C@@H]1CCCN1C(=O)[C@@H](N)CCCNC(=N)N)C(=O)O [Compound 65, RPPazaG^4FSPFR] (H-RPP[azaGly]FSPFR-OH; N-terminus and C-terminus assumed)	–	4.33 ± 1.3 min	–
–	N=C(N)NCCC[C@H](NC(=O)[C@H](Cc1ccccc1)NC(=O)[C@@H]1CCCN1C(=O)[C@H](CO)NC(=O)N(Cc1ccccc1)NC(=O)CNC(=O)[C@@H]1CCCN1C(=O)[C@@H]1CCCN1C(=O)[C@@H](N)CCCNC(=N)N)C(=O)O [Compound 66, RPPGazaF^5SPFR] (H-RPPG[azaPhe]SPFR-OH; N-terminus and C-terminus assumed)	–	14.7 ± 1.6 min	–
–	N=C(N)NCCC[C@H](NC(=O)[C@H](Cc1ccccc1)NC(=O)N1CCCN1C(=O)[C@H](CO)NC(=O)[C@H](Cc1ccccc1)NC(=O)CNC(=O)[C@@H]1CCCN1C(=O)[C@@H]1CCCN1C(=O)[C@@H](N)CCCNC(=N)N)C(=O)O [Compound 67, RPPGFSazaP^7FR] (H-RPPGFS[azaPro]FR-OH)	–	2.38 ± 0.03 min	–
–	N=C(N)NCCC[C@H](N)C(=O)N1CCC[C@H]1C(=O)N1CCC[C@H]1C(=O)NCC(=O)N[C@@H](Cc1ccccc1)C(=O)N[C@@H](CO)C(=O)N1CCC[C@H]1C(=O)N[C@@H](Cc1ccccc1)C(=O)NN(CCCNC(=N)N)C(=O)O [Compound 69]	–	42.6 ± 0.8 min	–
–	N=C(N)NCCC[C@H](NC(=O)N(Cc1ccccc1)NC(=O)[C@@H]1CCCN1C(=O)[C@H](CO)NC(=O)N(Cc1ccccc1)NC(=O)CNC(=O)[C@@H]1CCCN1C(=O)[C@@H]1CCCN1C(=O)[C@@H](N)CCCNC(=N)N)C(=O)O [Compound 71, RPPGazaF^5SPazaF^8R] (H-RPPG[azaPhe]SP[azaPhe]R-OH; N-terminus and C-terminus assumed)	–	106 ± 1.8 min	–
–	N=C(N)NCCC[C@@H](N)C(=O)N[C@@H](CCCNC(=N)N)C(=O)N1CCC[C@H]1C(=O)N1C[C@H](O)C[C@H]1C(=O)NCC(=O)N[C@@H](Cc1ccccc1)C(=O)N[C@@H](CO)C(=O)N[C@H](Cc1ccccc1)C(=O)N[C@@H](Cc1ccccc1)C(=O)N[C@@H](CCCNC(=N)N)C(=O)O [NPC 567, reference compound]	–	–	0.6 and 0.9
